Results reported in patent US11434205B2, “Substituted imidazole carboxylate derivatives and the use thereof” (priority 2018, dated 2022).
Read-outs that look alike come from different tables or passages of the source.

Assays:
rats [1] = assay type: in vivo, rat; conditions: for recovery time of the test animals' righting reflex: rats of the MAP/HR figures, 2×ED50, tail vein, same value in min
Method: The Effects of the Compounds on the Circulatory Function were Measured in Rats Using a Small Animal Implanted Physiological Signal Telemetry System
The anesthetic activity of the compounds was assessed in rats using a LORR assay and the up and down method was used to determine ED50. […] A small animal implantable physiological signal telemetry system from DSI (Data Science International, Inc.) was used to measure the changes in heart rate (HR) and blood pressure in rats during 30 min after administration. Then mean arterial pressure (MAP) and HR were used as representative indicators to determine hemodynamic stability of the compounds of the present invention in rats.
A small animal implantable physiological signal telemetry system from DSI (Data Science International, Inc.) including implants (RATHD-521, DSI, United States), receiver boards (RPC-1, DSI, United States), signal conversion devices (DEM, DSI, USA), perfusion glue (DSI, USA), fibrin membrane (DSI, USA), etc.
First, animal models were established. A left ventricular catheter, an abdominal aortic catheter and ECG wires were placed into rats. At least one week after surgery, data were recorded.
Administration procedure: rats were put into a restraint device with a 20 G indwelling catheter placed into a lateral tail vein. After administration of 0.2 mL heparin, a pre-filled extension tube was attached and taped to the tail vein to secure the extension tube. Then the rats were removed from the restraint device to a cage before placing them together on the signal receiver. […] Finally, the pharmacological effects, adverse reactions, and behavioural manifestations of the rats were observed and recorded
Data collection: After setting the data collection parameters on the software, the power of the implant was turned on to start data collection. In this experiment, data recording frequency was set to 15 s. Data collection was continuously recorded for 30 min before and after administration of the drugs in rats. After data acquisition, the test was stopped.

rats [2] = assay type: in vivo, rat; conditions: rats of the MAP/HR figures, 2×ED50, tail vein
[3] = tested on: secretion of corticosterone, H295R cell line; assay: cells; assay type: cell-based; conditions: for EC50: Homo sapiens, NCI-H295R, read-out: EC50 (Corticosterone)
Method: (§1) The Effects of the Compounds on Adrenocortical Function In Vitro Test
(§2) Then secretion of the cortisol and corticosterone in the supernatant, was measured using HPLC-MS/MS method to determine whether the compounds of the present invention had adrenotoxic potential.

[4] = tested on: secretion of cortisol, H295R cell line; assay: cells; assay type: cell-based; conditions: for EC50: Homo sapiens, NCI-H295R, read-out: EC50 (Cortisol)
Method: as §1, §2

rats [5] = conditions: for Recovery time after stopping infusion: after 1 hour infusion at 2×MIR; for Adverse reactions: Tremor (incidence): continuous infusion 2×MIR; for Onset time: emulsion, continuous infusion at 2×MIR
Method: Pharmacological Effects of the Compounds on Continuous Infusion in Rats
Adult male Sprague-Dawley rats with body weight ranging from 250 to 300 gm were selected for continuous infusion test. […] Time to recovery of righting reflex from stopping infusion, and time to fully awake from stopping infusion were recorded.

[6] = H295R cell line, 0.1-10000 nM, HPLC-MS/MS, Table E3
[7] = H295R cell line, 0.1-10000 nM, HPLC-MS/MS, Table D3

SMILES	recovery time of the test animals' righting reflex (rats [1]) [min]	recovery time of the test animals' righting reflex (rats [2]) [s]	EC50 [3] [nM]	EC50 [4] [nM]	also measured
CC(=O)C(C)(C)OC(=O)c1c(C(F)(F)F)ncn1[C@H](C)c1ccccc1 [Compound E160]	1.08	65	> 10000	> 10000	Corticosterone as an indicator to determine the presence of inhibition [3, 6]: 0; Cortisol as an indicator to determine the presence of inhibition [4, 6]: 0
C[C@H](c1ccccc1)n1cncc1C(=O)OC[S+](C)[O-] (stereo partly shown) [Compound C9]			> 10000	> 10000	Corticosterone as an indicator to determine the presence of inhibition ([3]; H295R, Table C3): 0; Cortisol as an indicator to determine the presence of inhibition ([4]; H295R, Table C3): 0
C[C@H](c1ccccc1)n1cncc1C(=O)OC(C)(C)C1OC1(C)C (stereo partly shown) [Compound B25]				> 1000	Corticosterone as an indicator to determine the presence of inhibition ([3]; H295R, Table B3): 0; Cortisol as an indicator to determine the presence of inhibition ([4]; H295R, Table B3): 0
C[C@H](c1ccccc1)n1cnc(F)c1C(=O)OC1(C=C=S)CCCCC1 [Compound E23]	1.53	92			
C=CC1(OC(=O)c2cncn2[C@H](C)c2ccccc2)CCCCC1 [Compound D35]	3.33	200	> 1000	> 1000	Corticosterone as an indicator to determine the presence of inhibition [3, 7]: 0; Cortisol as an indicator to determine the presence of inhibition [4, 7]: 0
CC(=O)C(C)(C)SC(=O)c1cncn1[C@H](C)c1ccccc1 [Compound C22]	1.55	93			
C[C@H](c1ccccc1)n1cncc1C(=O)OCC1(CO)CC1 [Compound A7]	1.83	110			Recovery time after stopping infusion (rats [5]): 7 to 9 min; Adverse reactions: Tremor (incidence) (rats [5]): Tremor (4/6); Onset time (rats [5]): 2 to 3 min
COCC1(CSC(=O)c2cncn2[C@H](C)c2ccccc2)CCC1 [Compound A28]	7.25	435	> 1000	> 1000	Corticosterone as an indicator to determine the presence of inhibition ([3]; H295R, Table A3): 0; Cortisol as an indicator to determine the presence of inhibition ([4]; H295R, Table A3): 0
CC(C)c1cccc(C(C)C)c1O [propofol, reference compound]	10.75	645			effect on the circulatory function (MAP, HR) (rats [1]; rats, 2×ED50, 30 min after administration): significant inhibition of the circulatory function
CC(=O)C(C)(C)OC(=O)c1cncn1[C@H](C)c1ccccc1 [Compound C8]	2.83	170			
C[C@H](c1ccccc1)n1cncc1C(=O)SC1CCC1 [Compound A29]	4.25	255			
CC(=O)C1(COC(=O)c2cncn2[C@H](C)c2ccccc2)COC1 [Compound C5]			> 1000	> 1000	Corticosterone as an indicator to determine the presence of inhibition ([3]; H295R, Table C3): 0; Cortisol as an indicator to determine the presence of inhibition ([4]; H295R, Table C3): 0
C[C@H](c1ccccc1)n1cncc1C(=O)OCC1CC1 [Compound A15]	3.22	193			Recovery time after stopping infusion (rats [5]): 12 to 15 min; Adverse reactions: Tremor (incidence) (rats [5]): Tremor (5/6); Onset time (rats [5]): 2 to 3 min
CC(=O)COC(=O)c1cncn1[C@H](C)c1ccccc1 [Compound C6]	2.0	120			
C[C@H](c1ccccc1)n1cncc1C(=O)OCC1(C=O)COC1 [Compound C12]			> 1000	> 1000	Corticosterone as an indicator to determine the presence of inhibition ([3]; H295R, Table C3): 0; Cortisol as an indicator to determine the presence of inhibition ([4]; H295R, Table C3): 0
CC(=O)CCSC(=O)c1cncn1[C@H](C)c1ccccc1 [Compound C23]	3.43	206			
